Here are results for two compounds from patent publication US10352935B2, “Tumor cell-derived microvesicles” (The Hospital for Sick Children, priority 2007, dated 2019).

The test system of experiment [1] is VEGF production by U373 cells. Put plainly: Microvesicle transfer assay, VEGF production by U373 cells (ELISA). In kind it is cell-based, human. Particulars: microvesicles preincubated with CI-1033 (FIG. 4A). On the procedure: (§1) U373 (acceptor) cells are treated with microvesicles for 24 hours and a single-cell suspension is analyzed by flow cytometry or fluorescent microscopy for expression of EGFRvIII or GFP. […] The expression of microvesicle associated molecules (EGFRvIII, TF), and expression of total and activated MAPK and Akt as well as other changes are assayed by immunoblot (BcIxL, p27/Kip1), ELISA (VEGF, R&D Systems), or promoter activity assays (VEGF), as described elsewhere (Lopez-Ocejo et al. 2000, Oncogene, 40:4611-4620): For soft agar colony formation assays single cell suspensions are prepared in 0.3% agarose from equal numbers of cells pretreated with microvesicles or control media. Cultures are established in plates precoated with 0.5% agarose and all colonies containing more than 4 cells are counted.

Another experiment deals with U373vIII tumours. Put plainly: Growth of U373vIII subcutaneous tumours in SCID mice under daily CI-1033. In kind it is in vivo. The source says:
U373 (human astrocytoma) cells, their stable variant U373vIII expressing Tet-off regulated EGFRvIII or EGFRvIII fused at C-terminus to green fluorescent protein (pEGFPN1) cassette (U373vIII-GFP) and A431 are maintained as described previously (Viloria-Petit et at Am. J. Pathology, 1997, 6:1523-1530; Yu et al., 2005, Blood, 105: 1734-1741) in medium containing microvesicle-depleted fetal bovine serum FBS. HUVEC cells are maintained in EGM-2 (Cambrex Bioscience, Walkesville, Md., USA). Microvesicles are collected from conditioned media or mouse plasma, as previously described (Yu & Rak, J. Thromb. Haemost, 2004, 2:2065-67; Al-Nedawi et al., 2005, Arterioscler. Thromb. Vasc. Biol., 25: 1744-1749). Briefly, media are subjected to two successive centrifugations at 300 g and 12000 g to eliminate cells and debris. Microvesicles are pelleted by ultracentrifugation for 2 hours at 100 000 g and quantified by protein content and analyzed for EGFR or EGFRvIII content. For scanning electron microscopy (SEM) the cells are grown on cover slips, fixed with 2.5% gluteraldehyde, stained with 1% OsO4, covered with gold and visualized using the JEOL 840A instrument. For in vivo analyses tumors are generated by injection of 1-10×10^6 U373vIII or U373 cells into immunodeficient (SCID) mice (Charles River, Canada). […]

For experiment [2], the system named is Erk1/2 phosphorylation in U373 cells. Briefly: Microvesicle transfer assay, Erk1/2 phosphorylation in U373 acceptor cells. The experiment is classed as cell-based, human. As to conditions: microvesicles preincubated with agent, 24 hours (FIG. 3A, 3B). On the procedure:
as §1

A further experiment concerns A431 tumours. Briefly: Growth of A431 subcutaneous tumours in mice under daily CI-1033. The experiment is classed as in vivo. As to conditions: 20 mg/kg intraperitoneally, 7 days (FIG. 13A).
Experiment [3] concerns VEGF promoter activity in U373 cells. Put plainly: Microvesicle transfer assay, VEGF promoter activity in U373 cells. In kind it is cell-based, human. As to conditions: microvesicles pretreated with annexin V (FIG. 4B). How it is done:
as §1

The test system of experiment [4] is Akt phosphorylation in U373 cells. Put plainly: Microvesicle transfer assay, Akt phosphorylation in U373 acceptor cells. In kind it is cell-based, human. As to conditions: microvesicles preincubated with annexin V (FIG. 3C). How it is done:
as §1

The test system of experiment [5] is BcIxL and p27/Kip1 expression in U373 cells. Put plainly: Microvesicle transfer assay, BcIxL and p27/Kip1 expression in U373 cells (immunoblot). In kind it is cell-based, human. As to conditions: annexin V-mediated blockade of microvesicle uptake. On the procedure: as §1
In general terms: Immunoblotting shows a protein as a band on a membrane.

In the case of `C=CC(=O)Nc1cc2c(Nc3ccc(F)c(Cl)c3)ncnc2cc1OCCCN1CCOCC1` [CI-1033], in experiment [1], the “Release of VEGF induced by U373vIII microvesicles” value is “unable to induce this release of VEGF”. Also, in the experiment on U373vIII tumours (SCID mice, daily doses of CI-1033 (FIG. 1D)), the “Formation/growth of U373vIII subcutaneous tumors” value is “susceptible to inhibition”. Besides, the “Tumour response (tumour size)” value in the experiment with U373vIII tumours (U373vIII tumours, 20 mg/kg intraperitoneally, daily, 7 days (FIG. 13A)) is “responsive”; in the experiment on A431 tumours it was “responsive”. For the same compound, the “Erk1/2 phosphorylation induced by U373vIII-derived microvesicles” value in experiment [2] is “markedly reduced”.
Consider “annexin V: blocks exposed phosphatidylserine residues of microvesicles and thereby their uptake by U373 cells”, for which the “VEGF promoter activity stimulated by EGFRvIII containing microvesicles” value in experiment [3] is “abrogated”. The “Akt phosphorylation induced by U373vIII-derived microvesicles” value in experiment [4] is “inhibitable”. The “Erk1/2 phosphorylation induced by U373vIII-derived microvesicles” value in experiment [2] is listed as “abrogated”. Further, in experiment [5], the “Decrease in levels of p27/Kip1 caused by EGFRvIII-containing microvesicles” value is recorded as “inhibited” and the “Increase in expression of BcIxL caused by EGFRvIII-containing microvesicles” value is “inhibited”.
